Assay: xn = mol fraction of the nth substance listed
Conditions: 100 kPa

CN(C)C=O + CC[n+]1ccn(C)c1.O=S(=O)([O-])C(F)(F)F
x1 = 1
Conditions	speed of sound [m/s]	viscosity [mPa·s]
303.15 K	1449.1	0.77
308.15 K	1435.2	0.72
313.15 K	1421.2	0.69
318.15 K	1407.2	0.65
323.15 K	1393.6	0.62

OCCO + CC[n+]1ccn(C)c1.O=S(=O)([O-])C(F)(F)F
x1 = 1
Conditions	speed of sound [m/s]	viscosity [mPa·s]
298.15 K	1655	16.39
303.15 K	1643.2	13.49
313.15 K	1619.7	9.34
323.15 K	1596.1	6.75

CC[n+]1ccn(C)c1.O=S(=O)([O-])C(F)(F)F + CN(C)C=O
Conditions	speed of sound [m/s]	viscosity [mPa·s]
298.15 K, x2 = 0.0917	1438.8	36.96
298.15 K, x2 = 0.2995	1444	20.94
298.15 K, x2 = 0.406	1446	14.56
298.15 K, x2 = 0.5094	1448.4	8.77
298.15 K, x2 = 0.5976	1450.6	6.17
298.15 K, x2 = 0.6947	1453.4	3.45
298.15 K, x2 = 0.7981	1457.5	2.59
298.15 K, x2 = 0.8957	1460.7	1.54
303.15 K, x2 = 0.0917	1427.6	31.13
303.15 K, x2 = 0.1933	1428.8	24.16
303.15 K, x2 = 0.2995	1430.7	17.86
303.15 K, x2 = 0.5094	1434.6	7.75
303.15 K, x2 = 0.5976	1436.5	5.52
303.15 K, x2 = 0.6947	1439.7	3.21
303.15 K, x2 = 0.7981	1443.5	2.38
303.15 K, x2 = 0.8957	1446.8	1.44
308.15 K, x2 = 0.0917	1416	26.42
308.15 K, x2 = 0.1933	1417.8	20.62
308.15 K, x2 = 0.2995	1419.1	15.36
308.15 K, x2 = 0.5094	1422.7	6.9
308.15 K, x2 = 0.5976	1424.4	4.98
308.15 K, x2 = 0.6947	1426.9	2.99
308.15 K, x2 = 0.7981	1429.7	2.19
308.15 K, x2 = 0.8957	1432.8	1.34
313.15 K, x2 = 0.0917	1404.6	22.67
313.15 K, x2 = 0.1933	1406.5	17.78
313.15 K, x2 = 0.2995	1408	13.34
313.15 K, x2 = 0.406	1409.7	9.57
313.15 K, x2 = 0.5094	1411	6.18
313.15 K, x2 = 0.6947	1414.6	2.78
313.15 K, x2 = 0.8957	1419.2	1.25
318.15 K, x2 = 0.406	1398.7	8.46
318.15 K, x2 = 0.5094	1399.7	5.57
318.15 K, x2 = 0.5976	1400.4	4.1
318.15 K, x2 = 0.7981	1403.5	1.88
318.15 K, x2 = 0.8957	1405.3	1.18
323.15 K, x2 = 0.0917	1382.3	17.12
323.15 K, x2 = 0.1933	1384	13.56
323.15 K, x2 = 0.2995	1386	10.31
323.15 K, x2 = 0.406	1387.4	7.53
323.15 K, x2 = 0.5094	1388	5.05
323.15 K, x2 = 0.5976	1388.9	3.75
323.15 K, x2 = 0.7981	1390.6	1.75
323.15 K, x2 = 0.8957	1392.1	1.11

Reference: a compilation of properties of binary mixtures (doi:10.1016/j.molliq.2018.09.007)
